Reference: ChEMBL document CHEMBL5352447, “Development of [1,2]oxazoloisoindoles tubulin polymerization inhibitors: Further chemical modifications and potential therapeutic effects against lymphomas” (Eur J Med Chem, 2022)

Experiments:
MDA-MB-468 = assay: Antiproliferative activity against human MDA-MB-468 cells assessed as cell growth inhibition incubated for 72 hrs by MTT assay; assay type: functional
[1] = Antiproliferative activity against human MINO cells assessed as inhibition of cell proliferation incubated for 72 hrs by MTT assay; assay type: functional, cell-based
[2] = Antiproliferative activity against human HBL1 cells assessed as inhibition of cell proliferation incubated for 72 hrs by MTT assay; assay type: functional, cell-based; details: HBL1, 72 h
IGROV-1 = assay: Antiproliferative activity against human IGROV-1 cells assessed as cell growth inhibition incubated for 72 hrs by MTT assay; assay type: functional
NCI-H460 = assay: Antiproliferative activity against human NCI-H460 cells assessed as cell growth inhibition incubated for 72 hrs by MTT assay; assay type: functional
ACHN = assay: Antiproliferative activity against human ACHN cells assessed as cell growth inhibition incubated for 72 hrs by MTT assay; assay type: functional
OVCAR-5 = assay: Antiproliferative activity against human OVCAR-5 cells assessed as cell growth inhibition incubated for 72 hrs by MTT assay; assay type: functional
SNB-75 = assay: Antiproliferative activity against human SNB-75 cells assessed as cell growth inhibition incubated for 72 hrs by MTT assay; assay type: functional
COLO 205 = assay: Antiproliferative activity against human COLO 205 cells assessed as cell growth inhibition incubated for 72 hrs by MTT assay; assay type: functional
MDA-MB-231 = assay: Antiproliferative activity against human MDA-MB-231 cells assessed as cell growth inhibition incubated for 72 hrs by MTT assay; assay type: functional
LOX IMVI = assay: Antiproliferative activity against human LOX IMVI cells assessed as cell growth inhibition incubated for 72 hrs by MTT assay; assay type: functional
CCRF-CEM = assay: Antiproliferative activity against human CCRF-CEM cells assessed as cell growth inhibition incubated for 72 hrs by MTT assay; assay type: functional
OVCAR-8 = assay: Antiproliferative activity against human OVCAR-8 cells assessed as cell growth inhibition incubated for 72 hrs by MTT assay; assay type: functional
SU-DHL10 = assay: Antiproliferative activity against human SU-DHL-10 cells assessed as inhibition of cell proliferation incubated for 72 hrs by MTT assay; assay type: functional, cell-based; details: SU-DHL10, 72 h
MCF7 = assay: Antiproliferative activity against human MCF7 cells assessed as cell growth inhibition incubated for 72 hrs by MTT assay; assay type: functional
M14 = assay: Antiproliferative activity against human M14 cells assessed as cell growth inhibition incubated for 72 hrs by MTT assay; assay type: functional
SK-OV-3 = assay: Antiproliferative activity against human SK-OV-3 cells assessed as cell growth inhibition incubated for 72 hrs by MTT assay; assay type: functional
MDA-MB-435 = assay: Antiproliferative activity against human MDA-MB-435 cells assessed as cell growth inhibition incubated for 72 hrs by MTT assay; assay type: functional
PC-3 = assay: Antiproliferative activity against human PC-3 cells assessed as cell growth inhibition incubated for 72 hrs by MTT assay; assay type: functional
UACC-257 = assay: Antiproliferative activity against human UACC-257 cells assessed as cell growth inhibition incubated for 72 hrs by MTT assay; assay type: functional
SNB-19 = assay: Antiproliferative activity against human SNB-19 cells assessed as cell growth inhibition incubated for 72 hrs by MTT assay; assay type: functional
SF-295 = assay: Antiproliferative activity against human SF-295 cells assessed as cell growth inhibition incubated for 72 hrs by MTT assay; assay type: functional
NCI/ADR-RES = assay: Antiproliferative activity against human NCI-ADR-RES cells assessed as cell growth inhibition incubated for 72 hrs by MTT assay; assay type: functional
SK-MEL-5 = assay: Antiproliferative activity against human SK-MEL-5 cells assessed as cell growth inhibition incubated for 72 hrs by MTT assay; assay type: functional
786-0 = assay: Antiproliferative activity against human 786-0 cells assessed as cell growth inhibition incubated for 72 hrs by MTT assay; assay type: functional
SK-MEL-28 = assay: Antiproliferative activity against human SK-MEL-28 cells assessed as cell growth inhibition incubated for 72 hrs by MTT assay; assay type: functional
OVCAR-4 = assay: Antiproliferative activity against human OVCAR-4 cells assessed as cell growth inhibition incubated for 72 hrs by MTT assay; assay type: functional
[3] = Antiproliferative activity against human HBL1 cells assessed as proliferating cells at 1 uM incubated for 72 hrs by MTT assay relative to control; assay type: functional
VL51 [4] = assay: Antiproliferative activity against human VL51 cells assessed as inhibition of cell proliferation incubated for 72 hrs by MTT assay; assay type: functional, cell-based; details: VL51, 72 h
VL51 [5] = assay: Antiproliferative activity against human VL51 cells assessed as proliferating cells at 1 uM incubated for 72 hrs by MTT assay relative to control; assay type: functional
NCI-H23 = assay: Antiproliferative activity against human NCI-H23 cells assessed as cell growth inhibition incubated for 72 hrs by MTT assay; assay type: functional
SN12C = assay: Antiproliferative activity against human SN12C cells assessed as cell growth inhibition incubated for 72 hrs by MTT assay; assay type: functional
RPMI-8226 = assay: Antiproliferative activity against human RPMI-8226 cells assessed as cell growth inhibition incubated for 72 hrs by MTT assay; assay type: functional
Hs-578T = assay: Antiproliferative activity against human Hs-578T cells assessed as cell growth inhibition incubated for 72 hrs by MTT assay; assay type: functional
SK-MEL-2 = assay: Antiproliferative activity against human SK-MEL-2 cells assessed as cell growth inhibition incubated for 72 hrs by MTT assay; assay type: functional
KM12 = assay: Antiproliferative activity against human KM12 cells assessed as cell growth inhibition incubated for 72 hrs by MTT assay; assay type: functional
BT-549 = assay: Antiproliferative activity against human BT-549 cells assessed as cell growth inhibition incubated for 72 hrs by MTT assay; assay type: functional
DU-145 = assay: Antiproliferative activity against human DU-145 cells assessed as cell growth inhibition incubated for 72 hrs by MTT assay; assay type: functional
NCI-H322M = assay: Antiproliferative activity against human NCI-H322M cells assessed as cell growth inhibition incubated for 72 hrs by MTT assay; assay type: functional
HCT-116 = assay: Antiproliferative activity against human HCT-116 cells assessed as cell growth inhibition incubated for 72 hrs by MTT assay; assay type: functional
SR = assay: Antiproliferative activity against human SR cells assessed as cell growth inhibition incubated for 72 hrs by MTT assay; assay type: functional
Malme-3M = assay: Antiproliferative activity against human Malme-3M cells assessed as cell growth inhibition incubated for 72 hrs by MTT assay; assay type: functional
UO-31 = assay: Antiproliferative activity against human UO-31 cells assessed as cell growth inhibition incubated for 72 hrs by MTT assay; assay type: functional
[6] = Antiproliferative activity against human MINO cells assessed as proliferating cells at 1 uM incubated for 72 hrs by MTT assay relative to control; assay type: functional
NCI-H522 = assay: Antiproliferative activity against human NCI-H522 cells assessed as cell growth inhibition incubated for 72 hrs by MTT assay; assay type: functional
A498 = assay: Antiproliferative activity against human A498 cells assessed as cell growth inhibition incubated for 72 hrs by MTT assay; assay type: functional
HOP-62 = assay: Antiproliferative activity against human HOP-62 cells assessed as cell growth inhibition incubated for 72 hrs by MTT assay; assay type: functional

COc1ccc(Cn2cc3c(c2-c2cc(OC)c(OC)c(OC)c2)CCc2c(CO)noc2-3)cc1
GI50 (MDA-MB-468): 330 nM | IC50 [1]: 1400 nM | IC50 [2]: 1700 nM | GI50 (IGROV-1): 490 nM | GI50 (NCI-H460): 340 nM | GI50 (ACHN): 620 nM | GI50 (OVCAR-5): 710 nM | GI50 (SNB-75): 180 nM | GI50 (COLO 205): 300 nM | GI50 (MDA-MB-231): 630 nM | GI50 (LOX IMVI): 570 nM | GI50 (CCRF-CEM): 320 nM | GI50 (OVCAR-8): 380 nM | IC50 (SU-DHL10): 1800 nM | GI50 (MCF7): 90 nM | GI50 (M14): 150 nM | GI50 (SK-OV-3): 370 nM | GI50 (MDA-MB-435): 30 nM | GI50 (PC-3): 270 nM | GI50 (UACC-257): 14700 nM | GI50 (SNB-19): 390 nM | GI50 (SF-295): 180 nM | GI50 (NCI/ADR-RES): 260 nM | GI50 (SK-MEL-5): 210 nM | GI50 (786-0): 360 nM | GI50 (SK-MEL-28): 3600 nM | GI50 (OVCAR-4): 5440 nM | Activity [3]: 80.3% | IC50 (VL51 [4]): 1600 nM | Activity (VL51 [5]): 51.3% | GI50 (NCI-H23): 520 nM | GI50 (SN12C): 720 nM | GI50 (RPMI-8226): 420 nM | GI50 (Hs-578T): 410 nM | GI50 (SK-MEL-2): 460 nM | GI50 (KM12): 270 nM | GI50 (BT-549): 490 nM | GI50 (DU-145): 390 nM | GI50 (NCI-H322M): 640 nM | GI50 (HCT-116): 270 nM | GI50 (SR): 210 nM | GI50 (Malme-3M): 13500 nM | GI50 (UO-31): 580 nM | Activity [6]: 82.1% | GI50 (NCI-H522): 150 nM | GI50 (A498): 280 nM

COc1ccc(Cn2cc3c(c2-c2cc(OC)c(OC)c(OC)c2)CCc2c(CN4CCOCC4)noc2-3)cc1
GI50 (MDA-MB-468): 340 nM | IC50 [1]: 500 nM | IC50 [2]: 500 nM | GI50 (IGROV-1): 810 nM | GI50 (NCI-H460): 520 nM | GI50 (ACHN): 630 nM | GI50 (SNB-75): 310 nM | GI50 (COLO 205): 590 nM | GI50 (MDA-MB-231): 2250 nM | GI50 (LOX IMVI): 620 nM | GI50 (CCRF-CEM): 1260 nM | GI50 (OVCAR-8): 1920 nM | IC50 (SU-DHL10): 500 nM | GI50 (MCF7): 360 nM | GI50 (M14): 560 nM | GI50 (SK-OV-3): 970 nM | GI50 (MDA-MB-435): 250 nM | GI50 (PC-3): 650 nM | GI50 (UACC-257): 1000 nM | GI50 (SNB-19): 860 nM | GI50 (SF-295): 470 nM | GI50 (NCI/ADR-RES): 430 nM | GI50 (SK-MEL-5): 1860 nM | GI50 (HOP-62): 1000 nM | GI50 (786-0): 770 nM | GI50 (SK-MEL-28): > 100000 nM | GI50 (OVCAR-4): 6840 nM | Activity [3]: 33.9% | IC50 (VL51 [4]): 200 nM | Activity (VL51 [5]): 53.3% | GI50 (NCI-H23): 2170 nM | GI50 (SN12C): 3810 nM | GI50 (RPMI-8226): 770 nM | GI50 (Hs-578T): 500 nM | GI50 (SK-MEL-2): 550 nM | GI50 (KM12): 400 nM | GI50 (BT-549): 1340 nM | GI50 (DU-145): 1990 nM | GI50 (HCT-116): 500 nM | GI50 (SR): 380 nM | GI50 (Malme-3M): 500 nM | GI50 (UO-31): 760 nM | Activity [6]: 5.3% | GI50 (NCI-H522): 300 nM | GI50 (A498): 320 nM
